Data reported in patent US12595449B2, “Integrated system for 3D tissue culture” (Valo Health, Inc., priority 2020, dated 2026).

Tested on: human engineered cardiac tissues (human iPSC derived cardiomyocytes co-cultured with human cardiac fibroblasts)
Assay: Drug testing with electrical stimulation of engineered cardiac tissues in the Biowire II 96-well plate (contractile dynamics from polymer wire displacement)
Type: cell-based
Details: thapsigargin 50×10^−6 m, n=2; for frequency of tissue beating: constant stimulation frequency 1.5 Hz, day 19, video after 15 min; for tissue contraction and relaxation time: electrical pacing 1.5 Hz, day 19 (after 12 days of electrical stimulation), video after 15 min
Procedure: To generate cardiac tissues, human iPSC derived cardiomyocytes co-cultured with human cardiac fibroblasts were seeded with hydrogel in the 96-well plate device. Tissue compaction in the first seven days was observed (FIG. 7A, FIG. 7B), with dramatic change in the first two days followed by stabilization after day 3. Electrical field stimulation of cardiac tissues was initiated at day 7 and continued for the additional 12 days. […] Thapsigargin (50×10^-6 m), an inhibitor of sarcoplasmic reticulum function in cardiomyocytes, was added in the presence of electrical pacing (1.5 Hz), resulting in a prolonged tissue contraction and relaxation time (FIG. 7H). […] Predominantly ventricular cardiomyocytes (CMs) were derived from the hiPSC line BJ1D, using monolayer differentiation protocols as previously described. At day 21 of differentiation, cardiomyocytes were disassociated into single cells with previously established methods. Briefly, 1 mg mL^-1 of collagenase type II (Worthington, LS004205) in Hank's Balanced Salt Solution was added to the monolayer cardiomyocyte cultures and incubated overnight at room temperature. The disassociated cells were mixed with cardiac fibroblasts (Lonza, NHCF-V) in a 10:1 cell number ratio. The mixed cells were pelleted and remixed in collagen hydrogel at 5.5×10^7 cells mL^-1. The cell-gel mixture was seeded at […] per microwell. A droplet of media was placed on the wall of the well to keep the moisture until gelation was complete. The plate was incubated at 37° C. and 5% CO2 for 10 min followed by media addition. After seeding (day 0), the tissues were cultured for seven days to allow remodeling around the POMaC wires. Bright field images of the tissues were taken daily to monitor tissue morphology. By day 7, the tissues synchronously contracted and deflected the POMaC wire with each contraction. SpectraMax […] 300 Imaging Cytometer was used to image tissues in the well plate to monitor the daily morphology changes of tissues. Nine pictures were taken in each well of the 96-well plate and automatically stitched together to show the entire view of the well. […] Average tissue width and width of the tissue (Tw), attachment site to the polymer sensor were measured using bright field images at the relaxed state. Passive displacement of polymer sensors was assessed in blue channel. […] The final readouts for the total and passive forces were interpolated according to the Tw and custom tip sizes. […] With built-in force sensor and electrodes, tissues were able to be assessed in situ in terms of their contractile dynamics and drug responses. […] The videos were analyzed using the custom MATLAB software. […]

SMILES: C/C=C(/C)C(=O)O[C@H]1C(C)=C2[C@H]([C@@H]1OC(=O)CCCCCCC)[C@@](C)(OC(C)=O)C[C@H](OC(=O)CCC)[C@@]1(O)[C@H]2OC(=O)[C@@]1(C)O [Thapsigargin]
- frequency of tissue beating: decreased by half
- frequency of tissue beating (listed as thapsigargin): reduced by half
- tissue contraction and relaxation time: prolonged
- tissue contraction and relaxation time (listed as thapsigargin): slowed
